Starred links: 1 amine or outer side, 2 acyl side, 3 side chain; linkers in the order of their positions; H or OH if unused. Non-standard residues stand in square brackets, D forms with d. Residues, ends and D or L forms follow the SMILES beside them. ξ: configuration not given here. ξNMeVal(3-OH) = CNC(C(=O)O)C(C)(C)O; NMeF = CN[CH](Cc1ccccc1)C(=O)O; X1 = CCC(C)C(O[*:1])C(=O)[*:2]; NMeV = CN[CH](C(=O)O)C(C)C
Columns and labels:
[1] = 50% lethal dose (LD50) in mice; type: in vivo
Text: All of the antibiotics R106 show low toxicity. The results of 50% lethal dose (LD50) obtained when each of representative compounds of the present invention was given to mice intravenously, intraperitoneally and orally are shown in Table 7.

[2] = test system: Fonsecaea pedrosoi TIMM 0482; assay: MIC by agar dilution method, casitone agar; type: cell-based; conditions: 27° C. for 7 days
[3] = test system: Trichophyton rubrum TIMM 1216; assay: MIC by agar dilution method, casitone agar; type: cell-based; conditions: 27° C. for 7 days
[4] = test system: Cladosporium carrionii TIMM 0337; assay: MIC by agar dilution method, casitone agar; type: cell-based; conditions: 27° C. for 7 days
[5] = test system: Cladosporium bantianum TIMM 0343; assay: MIC by agar dilution method, casitone agar; type: cell-based; conditions: 27° C. for 7 days
[6] = test system: Trichophyton mentagrophytes TIMM 1177; assay: MIC by agar dilution method, casitone agar; type: cell-based; conditions: 27° C. for 7 days
[7] = test system: Aspergillus terreus TIMM 0120; assay: MIC by agar dilution method, casitone agar; type: cell-based; conditions: 27° C. for 7 days
[8] = test system: Histoplasma capsulatum TIMM 0714; type: cell-based; conditions: 27° C. for 7 days
[9] = test system: Histoplasma capsulatum TIMM 0713; type: cell-based; conditions: 27° C. for 7 days
[10] = test system: Paracoccidioides brasiliensis TIMM 0878; assay: MIC by agar dilution method, casitone agar; type: cell-based; conditions: 27° C. for 7 days
Protocol: (§1) The antibiotics R106 of the present invention are active against various fungi including pathogenic fungi. The minimum inhibitory concentration (MIC) of each antibiotic against various fungi was determined by the agar dilution method using casitone agar medium (2.0% glucose, 0.9% bacto-casitone, 1.0% yeast extract, 0.1% KH2 PO4, 0.1% Na2 HPO4, 1.0% sodium citrate, 2.0% agar: concentrations are all by w/v).
(§2) After culturing at 27° C. for 7 days, each minimum inhibitory concentration was determined.

[11] = test system: Paracoccidioides brasiliensis TIMM 0880; assay: MIC by agar dilution method, casitone agar; type: cell-based; conditions: 27° C. for 7 days
Protocol: as §1, §2

[12] = test system: Trichosporon cutanum TIMM 1318; assay: MIC by agar dilution method, casitone agar; type: cell-based; conditions: 27° C. for 7 days
[13] = test system: Blastomyces dermatitidis TIMM 0126; assay: MIC by agar dilution method, casitone agar; type: cell-based; conditions: 27° C. for 7 days
[14] = test system: Aspergillus citrinum TIMM 1330; assay: MIC by agar dilution method, casitone agar; type: cell-based; conditions: 27° C. for 7 days
[15] = test system: Aspergillus niger TIMM 0113; assay: MIC by agar dilution method, casitone agar; type: cell-based; conditions: 27° C. for 7 days
[16] = test system: Candida albicans TIMM 1768; assay: Systemic candidiasis model of mice; type: in vivo, ICR strain mice; conditions: for Mean Survival Day: 3 hours after infection, then once a day for 4 days, 30 days; for Number of Animal Survived/Number of Animal Tested: 30 days after infection; for T/C: mean survival day treated vs control
Protocol: Candida albicans TIMM 1768 was cultured in Sabouraud-dextrose broth at 37° C. overnight, and the cells were collected and suspended in physiological saline. A cell suspension containing 1×10^6 cells was intravenously injected to ICR strain mice (5 week age, female). After 3 hours, a solution of an antibiotic R106 in TWEEN 80-ethanolphysiological saline (1:9:90, v/v) was subcutaneously, intravenously or orally given to the mice in various concentrations, and then once a day for 4 days the R106 drug solution was given. Mortality was assessed for 30 days after infection to determine the therapeutic effect.
T/C is a value which expresses the mean survival day of the treated group
to the mean survival day of the not treated control group by %.

[17] = test system: Aspergillus crustorum TIMM 1332; assay: MIC by agar dilution method, casitone agar; type: cell-based; conditions: 27° C. for 7 days
[18] = test system: Candida guilliermondii TIMM 0257; assay: MIC by agar dilution method, casitone agar; type: cell-based; conditions: 27° C. for 4 days
Protocol: as §1, with “The” for “The antibiotics R106 of the present invention are active against various fungi including pathogenic fungi. The”
(§3) Each minimum growth inhibitory concentration was determined after culturing at 27° C. for 4 days.

[19] = test system: Candida tropicalis TIMM 0312; assay: MIC by agar dilution method, casitone agar; type: cell-based; conditions: 27° C. for 4 days
Protocol: as §1, with “The” for “The antibiotics R106 of the present invention are active against various fungi including pathogenic fungi. The”
as §3

[20] = test system: Candida tropicalis TIMM 0315; assay: MIC by agar dilution method, casitone agar; type: cell-based; conditions: 27° C. for 4 days
Protocol: as §1, with “The” for “The antibiotics R106 of the present invention are active against various fungi including pathogenic fungi. The”
as §3

[21] = test system: Cryptococcus neoformans TIMM 0355; assay: MIC by agar dilution method, casitone agar; type: cell-based; conditions: 27° C. for 4 days
Protocol: as §1, with “The” for “The antibiotics R106 of the present invention are active against various fungi including pathogenic fungi. The”
as §3

[22] = test system: Candida glabrata TIMM 1062; assay: MIC by agar dilution method, casitone agar; type: cell-based; conditions: 27° C. for 4 days
Protocol: as §1, with “The” for “The antibiotics R106 of the present invention are active against various fungi including pathogenic fungi. The”
as §3

Candida kefyr TIMM 0298 = assay: MIC by agar dilution method, casitone agar; type: cell-based; conditions: 27° C. for 4 days
Protocol: as §1, with “The” for “The antibiotics R106 of the present invention are active against various fungi including pathogenic fungi. The”
as §3

[23] = test system: Candida glabrata TIMM 1064; assay: MIC by agar dilution method, casitone agar; type: cell-based; conditions: 27° C. for 4 days
Protocol: as §1, with “The” for “The antibiotics R106 of the present invention are active against various fungi including pathogenic fungi. The”
as §3

Candida krusei TIMM 0270 = assay: MIC by agar dilution method, casitone agar; type: cell-based; conditions: 27° C. for 4 days
Protocol: as §1, with “The” for “The antibiotics R106 of the present invention are active against various fungi including pathogenic fungi. The”
as §3

[24] = test system: Aspergillus clavatus TIMM 0056; assay: MIC by agar dilution method, casitone agar; type: cell-based; conditions: 27° C. for 7 days
[25] = Physicochemical properties of compound 1
Text: Physicochemical properties of compound 1 are as follows.

[26] = test system: Sporothrix schenckii TIMM 0959; assay: MIC by agar dilution method, casitone agar; type: cell-based; conditions: 27° C. for 7 days

## CCC(C)C1NC(=O)C2CCCN2C(=O)C(Cc2ccccc2)N(C)C(=O)C(Cc2ccccc2)NC(=O)C(C(C)C)N(C)C(=O)C(C(C)CC)OC(=O)C(C(C)(C)O)N(C)C(=O)C(CC(C)C)NC(=O)C(C(C)C)N(C)C1=O (stereo not shown) [Compound 1] (cyclo([ξNMeVal(3-OH)][X1][NMeV]F[NMeF]PI[NMeV]L); configuration not given here)
[1]; i.p.
  LD50: > 400 mg/kg
[1]; i.v.
  LD50: > 200 mg/kg
[1]; p.o.
  LD50: > 1000 mg/kg
[2]
  Minimum Inhibitory Concentration: 0.31 µg/mL
[3]
  Minimum Inhibitory Concentration: > 80 µg/mL
[4]
  Minimum Inhibitory Concentration: 1.25 µg/mL
[5]
  Minimum Inhibitory Concentration: 0.63 µg/mL
[6]
  Minimum Inhibitory Concentration: > 80 µg/mL
[7]
  Minimum Inhibitory Concentration: 5 µg/mL
[8]
  Minimum Inhibitory Concentration: 0.08 µg/mL
[9]
  Minimum Inhibitory Concentration: 0.16 µg/mL
[10]
  Minimum Inhibitory Concentration: 80 µg/mL
[11]
  Minimum Inhibitory Concentration: 0.31 µg/mL
[12]
  Minimum Inhibitory Concentration: > 80 µg/mL
[13]
  Minimum Inhibitory Concentration: 0.31 µg/mL
[14]
  Minimum Inhibitory Concentration: > 80 µg/mL
[15]
  Minimum Inhibitory Concentration: > 80 µg/mL
[16]; i.v. 0.875 mg/kg
  Mean Survival Day: 14.6 ± 1.9 days
  Number of Animal Survived/Number of Animal Tested: 0/5
  T/C: 119%
[16]; i.v. 1.75 mg/kg
  Mean Survival Day: 18.2 ± 5.0 days
  Number of Animal Survived/Number of Animal Tested: 0/5
  T/C: 149%
[16]; i.v. 3.5 mg/kg
  Mean Survival Day: 19.2 ± 6.3 days
  Number of Animal Survived/Number of Animal Tested: 0/5
  T/C: 157%
[16]; i.v. 7 mg/kg
  Mean Survival Day: 29.0 ± 2.2 days
  Number of Animal Survived/Number of Animal Tested: 4/5
  T/C: 237%
[16]; i.v. 14 mg/kg
  Mean Survival Day: 26.6 ± 5.0 days
  Number of Animal Survived/Number of Animal Tested: 3/5
  T/C: 217%
[16]; p.o. 7 mg/kg
  Mean Survival Day: 14.8 ± 4.8 days
  Number of Animal Survived/Number of Animal Tested: 0/5
  T/C: 121%
[16]; p.o. 14 mg/kg
  Mean Survival Day: 23.2 ± 6.2 days
  Number of Animal Survived/Number of Animal Tested: 0/5
  T/C: 189%
[16]; p.o. 28 mg/kg
  Mean Survival Day: 30.0 ± 0 days
  Number of Animal Survived/Number of Animal Tested: 5/5
  T/C: 245%
[16]; s.c. 1.75 mg/kg
  Mean Survival Day: 14.2 ± 2.9 days
  Number of Animal Survived/Number of Animal Tested: 0/5
  T/C: 116%
[16]; s.c. 3.5 mg/kg
  Mean Survival Day: 18.8 ± 3.5 days
  Number of Animal Survived/Number of Animal Tested: 0/5
  T/C: 153%
[16]; s.c. 7 mg/kg
  Mean Survival Day: 22.4 ± 7.0 days
  Number of Animal Survived/Number of Animal Tested: 2/5
  T/C: 183%
[16]; s.c. 14 mg/kg
  Mean Survival Day: 27.2 ± 6.3 days
  Number of Animal Survived/Number of Animal Tested: 4/5
  T/C: 222%
[17]
  Minimum Inhibitory Concentration: > 80 µg/mL
[18]
  Minimum Inhibitory Concentration: 0.08 µg/mL
[19]
  Minimum Inhibitory Concentration: 0.08 µg/mL
[20]
  Minimum Inhibitory Concentration: 0.08 µg/mL
[21]
  Minimum Inhibitory Concentration: 0.31 µg/mL
[22]
  Minimum Inhibitory Concentration: ≤ 0.04 µg/mL
Candida kefyr TIMM 0298
  Minimum Inhibitory Concentration: 0.16 µg/mL
[23]
  Minimum Inhibitory Concentration: 0.08 µg/mL
Candida krusei TIMM 0270
  Minimum Inhibitory Concentration: ≤ 0.04 µg/mL
[24]
  Minimum Inhibitory Concentration: 0.16 µg/mL
[25]
  Acidic, neutral or basic: neutral substance
[25]; organic solvents
  Solubility in solvent: soluble in chloroform, methanol, ethanol, N,N-dimethylformamide and dimethylsulfoxide
[25]; water
  Solubility in solvent: sparingly soluble in water
[26]
  Minimum Inhibitory Concentration: > 80 µg/mL

— patent publication US5057493A, “Novel antibiotics R106” (priority 1988, dated 1991)
